Like-named read-outs stand apart in the source and are kept apart here.
Molecular target: T1, MST1 (Homo sapiens, UniProt Q13043)
T1 sequence (Q13043 1-487): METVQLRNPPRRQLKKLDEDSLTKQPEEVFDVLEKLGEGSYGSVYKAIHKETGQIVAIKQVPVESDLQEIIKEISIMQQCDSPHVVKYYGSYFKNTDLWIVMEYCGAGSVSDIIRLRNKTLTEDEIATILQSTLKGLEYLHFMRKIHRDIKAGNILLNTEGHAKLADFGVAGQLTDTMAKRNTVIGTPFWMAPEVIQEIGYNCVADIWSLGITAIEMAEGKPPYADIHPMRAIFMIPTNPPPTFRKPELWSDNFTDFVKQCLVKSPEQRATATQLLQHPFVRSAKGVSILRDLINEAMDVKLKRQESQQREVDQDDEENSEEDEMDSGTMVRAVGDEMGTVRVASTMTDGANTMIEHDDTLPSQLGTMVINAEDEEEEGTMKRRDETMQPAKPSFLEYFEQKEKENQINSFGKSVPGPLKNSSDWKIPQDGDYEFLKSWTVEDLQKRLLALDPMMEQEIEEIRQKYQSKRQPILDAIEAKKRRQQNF
Assay: In vitro measurement of MST1 inhibition (Z′-Lyte kinase assay)
Format: biochemical

[1] = 1 μM ATP, read-out: IC50 (μM) 1 μM ATP
[2] = 50 μM ATP, read-out: IC50 (μM) 50 μM ATP

| SMILES | IC50 [1] | IC50 [2] |
| --- | --- | --- |
| CN(C1CC1)S(=O)(=O)c1ccc(-c2cnc(N)c(-c3ccc4c(c3)OCCNC4=O)n2)cc1 [4-(5-amino-6-(5-oxo-2,3,4,5-tetrahydrobenzo[f][1,4]oxazepin-8-yl)pyrazin-2-yl)-N-cyclopropyl-N-methylbenzenesulfonamide] | < 0.01 µM | < 0.01 µM |
| Nc1ncc(-c2ccc(S(=O)(=O)NC3CC3)cc2)nc1-c1ccc2c(c1)OCCNC2=O [4-(5-amino-6-(5-oxo-2,3,4,5-tetrahydrobenzo[f][1,4]oxazepin-8-yl)pyrazin-2-yl)-N-cyclopropylbenzenesulfonamide] | < 0.01 µM | < 0.01 µM |
| Nc1ncc(-c2ccc(S(=O)(=O)NC3CC3)cc2)nc1-c1ncc(-c2ccccc2)[nH]1 [4-(5-amino-6-(5-phenyl-1H-imidazol-2-yl)pyrazin-2-yl)-N-cyclopropylbenzenesulfonamide] | – | < 0.05 µM |
| CN(C1CC1)S(=O)(=O)c1ccc(-c2cnc(N)c(-c3cc4c(cn3)C(=O)NCC4)n2)cc1 [4-(5-amino-6-(8-oxo-5,6,7,8-tetrahydro-2,7-naphthyridin-3-yl)pyrazin-2-yl)-N-cyclopropyl-N-methylbenzenesulfonamide] | < 0.01 µM | < 0.01 µM |
| Nc1ncc(-c2ccc(S(=O)(=O)NC3CC3)cc2)nc1-c1cc2c(cn1)C(=O)NCC2 [4-(5-amino-6-(8-oxo-5,6,7,8-tetrahydro-2,7-naphthyridin-3-yl)pyrazin-2-yl)-N-cyclopropylbenzenesulfonamide] | < 0.01 µM | < 0.01 µM |
| N#Cc1ccc(-c2cnc(N)c(-c3cc4c(cn3)C(=O)NCC4)n2)cc1 [4-(5-amino-6-(8-oxo-5,6,7,8-tetrahydro-2,7-naphthyridin-3-yl)pyrazin-2-yl)benzonitrile] | < 0.01 µM | < 0.01 µM |
| CN(C1CC1)S(=O)(=O)c1ccc(-c2cnc(N)c(C#Cc3ccnc(O)c3)n2)cc1 [4-(5-amino-6-((2-hydroxypyridin-4-yl)ethynyl)pyrazin-2-yl)-N-cyclopropyl-N-methylbenzenesulfonamide] | < 0.15 µM | < 0.05 µM |
| CC(=O)N1CC(C)(C)c2cc(-c3nc(-c4ccc(S(=O)(=O)N(C)C5CC5)cc4)cnc3N)ccc21 [4-(6-(1-acetyl-3,3-dimethylindolin-5-yl)-5-aminopyrazin-2-yl)-N-cyclopropyl-N-methylbenzenesulfonamide] | < 0.05 µM | < 0.01 µM |
| CN(C1CC1)S(=O)(=O)c1ccc(-c2cc(-c3ccc4c(c3)CCNC4=O)c(N)nn2)cc1 [4-(6-amino-5-(1-oxo-1,2,3,4-tetrahydroisoquinolin-6-yl)pyridazin-3-yl)-N-cyclopropyl-N-methylbenzenesulfonamide] | < 0.05 µM | < 0.01 µM |
| Nc1ncc(-c2ccc(S(=O)(=O)NC3CC3)c(Cl)c2)cc1-c1ccc2c(c1)CCNC2=O [4-(6-amino-5-(1-oxo-1,2,3,4-tetrahydroisoquinolin-6-yl)pyridin-3-yl)-2-chloro-N-cyclopropylbenzenesulfonamide] | < 0.01 µM | < 0.01 µM |
| Nc1ncc(-c2ccc(S(=O)(=O)N(CC(F)(F)F)C3CCC3)cc2)cc1-c1ccc2c(c1)CCNC2=O [4-(6-amino-5-(1-oxo-1,2,3,4-tetrahydroisoquinolin-6-yl)pyridin-3-yl)-N-cyclobutyl-N-(2,2,2-trifluoroethyl)benzenesulfonamide] | < 0.05 µM | < 0.01 µM |
| Nc1ncc(-c2ccc(S(=O)(=O)NC3CCC3)cc2)cc1-c1ccc2c(c1)CCNC2=O [4-(6-amino-5-(1-oxo-1,2,3,4-tetrahydroisoquinolin-6-yl)pyridin-3-yl)-N-cyclobutylbenzenesulfonamide] | < 0.01 µM | < 0.01 µM |
| Nc1ncc(-c2ccc(S(=O)(=O)NC3CC3)c(F)c2)cc1-c1ccc2c(c1)CCNC2=O [4-(6-amino-5-(1-oxo-1,2,3,4-tetrahydroisoquinolin-6-yl)pyridin-3-yl)-N-cyclopropyl-2-fluorobenzenesulfonamide] | < 0.01 µM | < 0.01 µM |
| Cc1cc(-c2cnc(N)c(-c3ccc4c(c3)CCNC4=O)c2)ccc1S(=O)(=O)N(C)C1CC1 [4-(6-amino-5-(1-oxo-1,2,3,4-tetrahydroisoquinolin-6-yl)pyridin-3-yl)-N-cyclopropyl-N,2-dimethylbenzenesulfonamide] | < 0.01 µM | < 0.01 µM |
| Nc1ncc(-c2ccc(S(=O)(=O)NC3CC3)cc2)cc1-c1ccc2c(c1)CCNC2=O [4-(6-amino-5-(1-oxo-1,2,3,4-tetrahydroisoquinolin-6-yl)pyridin-3-yl)-N-cyclopropylbenzenesulfonamide] | < 0.01 µM | < 0.01 µM |
| CCN(C)S(=O)(=O)c1ccc(-c2cnc(N)c(-c3ccc4c(c3)CCNC4=O)c2)cc1 [4-(6-amino-5-(1-oxo-1,2,3,4-tetrahydroisoquinolin-6-yl)pyridin-3-yl)-N-ethyl-N-methylbenzenesulfonamide] | < 0.01 µM | < 0.01 µM |

| SMILES | IC50 [1] | IC50 [2] |
| --- | --- | --- |
| CN(C1CC1)S(=O)(=O)c1ccc(-c2cnc(N)c(-c3ccc4c(=O)[nH]ccc4c3)c2)cc1 [4-(6-amino-5-(1-oxo-1,2-dihydroisoquinolin-6-yl)pyridin-3-yl)-N-cyclopropyl-N-methylbenzenesulfonamide] | < 0.01 µM | < 0.01 µM |
| CN(C1CC1)S(=O)(=O)c1ccc(-c2cnc(N)c(-c3ccc4c(c3)CCCNC4=O)c2)cc1 [4-(6-amino-5-(1-oxo-2,3,4,5-tetrahydro-1H-benzo[c]azepin-7-yl)pyridin-3-yl)-N-cyclopropyl-N-methylbenzenesulfonamide] | < 0.01 µM | < 0.01 µM |
| Nc1ncc(-c2ccc(S(=O)(=O)NC3CC3)cc2)cc1-c1ccc2c(c1)CCCNC2=O [4-(6-amino-5-(1-oxo-2,3,4,5-tetrahydro-1H-benzo[c]azepin-7-yl)pyridin-3-yl)-N-cyclopropylbenzenesulfonamide] | < 0.01 µM | < 0.01 µM |
| CN(C1CC1)S(=O)(=O)c1ccc(-c2cnc(N)c(-c3ccc4c(c3)C3(CC3)CNC4=O)c2)cc1 [4-(6-amino-5-(1′-oxo-2′,3′-dihydro-1′H-spiro[cyclopropane-1,4′-isoquinolin]-6′-yl)pyridin-3-yl)-N-cyclopropyl-N-methylbenzenesulfonamide] | < 0.01 µM | < 0.01 µM |
| Nc1ncc(-c2ccc(S(=O)(=O)NC3CC3)cc2)cc1-c1ccc2c(c1)C1(CC1)CNC2=O [4-(6-amino-5-(1′-oxo-2′,3′-dihydro-1′H-spiro[cyclopropane-1,4′-isoquinolin]-6′-yl)pyridin-3-yl)-N-cyclopropylbenzenesulfonamide] | < 0.01 µM | < 0.01 µM |
| CN(C1CC1)S(=O)(=O)c1ccc(-c2cnc(N)c(-c3ccc4c(c3)CCN(CCC#N)C4=O)c2)cc1 [4-(6-amino-5-(2-(2-cyanoethyl)-1-oxo-1,2,3,4-tetrahydroisoquinolin-6-yl)pyridin-3-yl)-N-cyclopropyl-N-methylbenzenesulfonamide] | < 0.15 µM | < 0.05 µM |
| CN(C1CC1)S(=O)(=O)c1ccc(-c2cnc(N)c(-c3ccc4c(c3)CCCCC(=O)N4)c2)cc1 [4-(6-amino-5-(2-oxo-1,2,3,4,5,6-hexahydrobenzo[b]azocin-8-yl)pyridin-3-yl)-N-cyclopropyl-N-methylbenzenesulfonamide] | < 0.15 µM | < 0.05 µM |
| CCN(CC)S(=O)(=O)c1ccc(-c2cnc(N)c(-c3ccc4c(c3)CCCC(=O)N4)c2)cc1 [4-(6-amino-5-(2-oxo-2,3,4,5-tetrahydro-1H-benzo[b]azepin-7-yl)pyridin-3-yl)-N,N-diethylbenzenesulfonamide] | – | < 0.15 µM |
| CN(C1CC1)S(=O)(=O)c1ccc(-c2cnc(N)c(-c3ccc4c(c3)C(C)(C)NC4=O)c2)cc1 [4-(6-amino-5-(3,3-dimethyl-1-oxoisoindolin-5-yl)pyridin-3-yl)-N-cyclopropyl-N-methylbenzenesulfonamide] | < 0.01 µM | < 0.01 µM |
| CCN(CC)S(=O)(=O)c1ccc(-c2cnc(N)c(-c3ccc4c(O)n[nH]c4c3)c2)cc1 [4-(6-amino-5-(3-hydroxy-1H-indazol-6-yl)pyridin-3-yl)-N,N-diethylbenzenesulfonamide] | – | < 0.15 µM |
| CCN(CC)S(=O)(=O)c1ccc(-c2cnc(N)c(-c3ccc4c(=O)[nH]oc4c3)c2)cc1 [4-(6-amino-5-(3-oxo-2,3-dihydrobenzo[d]isoxazol-6-yl)pyridin-3-yl)-N,N-diethylbenzenesulfonamide] | – | < 0.15 µM |
| CN(C1CC1)S(=O)(=O)c1ccc(-c2cnc(N)c(-c3ccc4c(c3)C3(CC3)NC4=O)c2)cc1 [4-(6-amino-5-(3′-oxospiro[cyclopropane-1,1′-isoindolin]-6′-yl)pyridin-3-yl)-N-cyclopropyl-N-methylbenzenesulfonamide] | < 0.01 µM | < 0.01 µM |
| Nc1ncc(-c2ccc(S(=O)(=O)NC3CC3)cc2)cc1-c1ccc2c(c1)C1(CC1)NC2=O [4-(6-amino-5-(3′-oxospiro[cyclopropane-1,1′-isoindolin]-6′-yl)pyridin-3-yl)-N-cyclopropylbenzenesulfonamide] | < 0.01 µM | < 0.01 µM |
| CC1(C)CNC(=O)c2ccc(-c3cc(-c4ccc(S(=O)(=O)NC5CC5)cc4)cnc3N)cc21 [4-(6-amino-5-(4,4-dimethyl-1-oxo-1,2,3,4-tetrahydroisoquinolin-6-yl)pyridin-3-yl)-N-cyclopropylbenzenesulfonamide] | < 0.01 µM | < 0.01 µM |
| CCN(CC)S(=O)(=O)c1ccc(-c2cnc(N)c(-c3ccc4c(O)ncnc4c3)c2)cc1 [4-(6-amino-5-(4-hydroxyquinazolin-7-yl)pyridin-3-yl)-N,N-diethylbenzenesulfonamide] | < 0.05 µM | < 0.01 µM |

Source: patent publication US8440652B2, “MST1 kinase inhibitors and methods of their use” (Lexicon Pharmaceuticals, Inc., priority 2011, dated 2013)
